The values below come from PMC7400207, “It Takes Two: Dimerization Is Essential for the Broad-Spectrum Predatory and Defensive Activities of the Venom Peptide Mp1a from the Jack Jumper Ant Myrmecia pilosula” (Biomedicines, 2020).

Data set [1] relates to Haemonchus contortus. The experiment in a line: microbe, parasite or virus in culture. Type of data set: cell-based. To be noted: H. contortus Kirby isolate, egg to infective L3, 6 days, 26 °C; three experiments of duplicate assays, ± SEM; for 1a the component at higher concentrations (about 90% of population); read-out: Anthelmintic Activity (IC50), inhibition of larval development. The protocol: Sheep were infected with H. contortus Kirby isolate (field isolate from the University of New England Kirby Research Farm in 1986; susceptible to all commercial anthelmintics) and housed at the Commonwealth Scientific and Industrial Research Organisation (CSIRO) FD McMaster Laboratory, Armidale, NSW. All animal procedures were approved by the FD McMaster Animal Ethics Committee, CSIRO (Approval Number AEC 17/12, approval date 15.6.2017). Eggs were prepared from overnight fecal collection as described. In brief, feces were filtered through mesh filters, settled, and supernatant removed by vacuum. Eggs were recovered by density centrifugation using 10 and 25% (w/v) sucrose solutions, centrifuged at 650× g for 7 min. Eggs were recovered from the interface of the two sucrose layers, rinsed with distilled water, sterilized with bleach, rinsed again, and diluted to 4500 eggs/mL. Tylosin tartrate (800 μg/mL) and amphotericin B (25.0 μg/mL) were added, and eggs were used immediately for larval development assays.
Assays were conducted using 96-well microtitre plates, with each well containing 50 μL of 2% agar, 20 μL of egg solution and 20 μL of peptide solution in water. The commercial anthelmintic levamisole (Sigma Aldrich) was used as a positive control (final 1% v/v). Negative controls contained equivalent volumes of water or DMSO (final 1% v/v). Plates were incubated at 26 °C for six days. After 24 h, each well was fed with 10 μL of a nutrient solution containing Escherichia coli XL1-Blue1 (grown overnight at 37 °C) and growth medium. The growth medium consisted of yeast extract (1% w/v), Earle’s salt solution (10% v/v), saline solution (0.9% NaCl, w/v), and sodium bicarbonate (1 mM) in Luria-Bertani medium (LB). Larvae were killed and stained with Lugol’s iodine solution after six days. Larvae that had developed to the infective L3 stage were counted, and the numbers in treated assay wells were expressed as a percentage of the number of infective L3 stage larvae in multiple control wells. Concentrations that caused 50% inhibition (IC50 values) were calculated from three experiments of duplicate assays.

Data set [2] relates to HEK293 cells. To be noted: HEK293, 24 h, resazurin; cited from earlier work. Here is the method: Table 2 Summary of bioassay data for synthetic Mp1a and analogues, including effective concentration (EC50) for activation of F11 cells, concentrations that caused 50% inhibition (IC50) for inhibition of larval development of H. contortus; median lethal dose (LD50) for lethal insecticidal effects on D. melanogaster; concentrations required to induce 50% cell death (CC50) for effects on viability o | column: Cytotoxicity (CC50 µM) ^b

Data set [3] has as its system Drosophila melanogaster. The data set is described as follows: Drosophila melanogaster microinjection assay. The conditions noted are these: intrathoracic injection, 50 nL, adult female flies, lethality at 24 h; three dose-response curves, ± SEM. Type of data set: in vivo. Here is the method: The insecticidal activity of the chemically synthesized 1a and analogues thereof were determined by injection into adult female D. melanogaster aged 3–5 days (mass 0.7–0.9 mg) as described previously. Analogues were dissolved in water and intrathoracically injected using pulled glass capillaries at a volume of 50 nL per fruit fly, and the results were compared against an equivalent injection volume of water alone. All injections were performed in the morning or early afternoon. At 24 h post-injection flies were monitored for lethality. Dose–response curves were constructed using 7–10 doses per analogue (each dose tested in eight flies) and three separate dose–response curves were constructed for each analogue. The lethality in the groups receiving the analogues were adjusted using the respective control group lethality using the Henderson-Tilton formula [20]. The median lethal dose (LD50) of each analogue was calculated based on the three dose–response curves using GraphPad Prism 8.0 [21]. One-way ANOVA followed by Dunnett’s multiple comparison test were used to compare LD50 values.

Data set [4] concerns F11 cells. The experiment in a line: FLIPR calcium assay, activation of F11 cells. It is filed as cell-based. Here is the method: F11 cells were cultured as previously described. Cells were maintained on Ham’s F12 media supplemented with 10% fetal bovine serum (FBS), 100 µM hypoxanthine, 0.4 µM aminopterin, and 16 µM thymidine (Hybri-MaxTM, Sigma Aldrich, North Ryde, Australia). Then, 384-well imaging plates (Corning) were seeded 48 h prior to imaging resulting in 90–95% confluence at imaging. Cells were incubated for 30 min with the Calcium 4 assay component A according to the manufacturer’s instructions (Molecular Devices, Sunnyvale, CA, USA) in physiological salt solution (PSS; composition in mM: 140 NaCl, 11.5 D-glucose, 5.9 KCl, 1.4 MgCl2, 1.2 NaH2PO4, 5 NaHCO3, 1.8 CaCl2, 10 HEPES) at 37°C. Fluorescence was measured using a fluorescent imaging plate reader (FLIPR^TETRA) equipped with a CCD camera (Excitation: 470–490 nm, Emission: […]) (Molecular Devices, Sunnyvale, CA, USA). Signals were read every second for 10 s before, and 300 s after the addition of peptides in PSS supplemented with 0.1% bovine serum albumin. All data are the mean ± SEM of assays performed in triplicate. Maximum–minimum fluorescence in the 300 s period after peptide addition was recorded as the response. Concentration–response data were fitted with a four-parameter Hill equation (variable slope) using GraphPad Prism 8 to obtain effective concentration (EC50) values.

Data set [5] concerns human red blood cells. The conditions noted are these: cited from earlier work. Here is the method: Table 2 Summary of bioassay data for synthetic Mp1a and analogues, including effective concentration (EC50) for activation of F11 cells, concentrations that caused 50% inhibition (IC50) for inhibition of larval development of H. contortus; median lethal dose (LD50) for lethal insecticidal effects on D. melanogaster; concentrations required to induce 50% cell death (CC50) for effects on viability o | column: Hemolysis (HC50 µM) ^b

Where [6] appears, read: F11 cells, FLIPR, Calcium 4 dye, max-min fluorescence in 300 s after peptide addition, PSS with 0.1% BSA, mean ± SEM, triplicate.

SMILES strings stand for the structures.

Regarding `CC[C@H](C)[C@H](N)C(=O)N[C@@H](CC(=O)O)C(=O)N[C@@H](Cc1c[nH]c2ccccc12)C(=O)N[C@@H](CCCCN)C(=O)N[C@@H](CCCCN)C(=O)N[C@H](C(=O)N[C@@H](CC(=O)O)C(=O)N[C@@H](Cc1c[nH]c2ccccc12)C(=O)N[C@@H](CCCCN)C(=O)N[C@@H](CCCCN)C(=O)N[C@H](C(=O)N[C@@H](CO)C(=O)N[C@@H](CCCCN)C(=O)N[C@@H](CCCCN)C(=O)N[C@H](C(=O)N[C@H]1CSSC[C@H](NC(=O)[C@@H](NC(=O)CNC(=O)[C@H](CCCCN)NC(=O)[C@H](CO)NC(=O)[C@@H](NC(=O)[C@H](CC(C)C)NC(=O)CNC(=O)[C@@H](NC(=O)[C@@H](N)CC(C)C)[C@@H](C)CC)C(C)C)[C@@H](C)O)C(=O)N[C@@H](C(C)C)C(=O)N[C@@H](CC(C)C)C(=O)N[C@@H](C(C)C)C(=O)N[C@@H](CCCCN)C(=O)N[C@@H]([C@@H](C)O)C(=O)N[C@@H](C(C)C)C(=O)N[C@H](C(=O)N[C@@H](CCCCN)C(=O)N[C@@H](CCCCN)C(=O)N[C@H](C(=O)N[C@@H](CC(C)C)C(=O)N[C@@H](CCCCN)C(=O)N[C@@H](CCC(N)=O)C(N)=O)C(C)C)CSSC[C@@H](C(=O)N[C@@H](CCCCN)C(=O)N[C@@H](Cc2ccccc2)C(=O)N[C@@H](CC(C)C)C(N)=O)NC(=O)[C@H](C)NC(=O)[C@H](CCCCN)NC(=O)[C@H](CC(C)C)NC(=O)[C@H](CCSC)NC(=O)[C@H](C(C)C)NC(=O)[C@H](CCCCN)NC1=O)[C@@H](C)O)C(C)C)C(C)C` [Analogue 2a], the IC50 in data set [1] was 35.8 ± 1.9 µM. In addition, the “Cytotoxicity (CC50)” value in data set [2] was greater than 10 µM. Besides, the “Insecticidal Activity (LD50)” value in data set [3] is reported as greater than 600 pmol/g. Further, the “Concentration at which cytolysis (rapid increase in fluorescence followed by decrease to or below baseline) was observed” value in data set [4] (F11 cells, FLIPR) is listed as no less than 1 µM. Also, in data set [4] (F11 cells, FLIPR, Calcium 4 dye, max-min fluorescence in 300 s after peptide addition, PSS with 0.1% BSA, mean ± SEM, triplicate, read-out: Neuronal Cell Activation (EC50)), the EC50 was found to be 0.9 ± 0.08 µM. Besides, the “Fold less active than native Mp1a (1a), F11 cell activation” value in data set [4] (ratio of EC50 values) is recorded as “equipotent”. The “Hemolysis (HC50)” value in data set [5] is reported as greater than 10 µM.
On to `CC[C@H](C)[C@H](NC(=O)[C@@H](N)CC(C)C)C(=O)NCC(=O)N[C@@H](CC(C)C)C(=O)N[C@H](C(=O)N[C@@H](CO)C(=O)N[C@@H](CCCCN)C(=O)NCC(=O)N[C@H](C(=O)N[C@H]1CSSC[C@@H](C(=O)N[C@@H](CCCCN)C(=O)N[C@@H](CCCCN)C(=O)N[C@H](C(=O)N[C@@H](CC(C)C)C(=O)N[C@@H](CCCCN)C(=O)N[C@@H](CCC(N)=O)C(N)=O)C(C)C)NC(=O)[C@H](C(C)C)NC(=O)[C@H]([C@@H](C)O)NC(=O)[C@H](CCCCN)NC(=O)[C@H](C(C)C)NC(=O)[C@H](CC(C)C)NC(=O)[C@H](C(C)C)NC1=O)[C@@H](C)O)C(C)C` [Analogue 4a], for which the IC50 in data set [1] is 65.5 ± 5.5 µM. For the same compound, in data set [2], the “Cytotoxicity (CC50)” value is recorded as greater than 15 µM. Moreover, the “Insecticidal Activity (LD50)” value in data set [3] is recorded as greater than 600 pmol/g. The “Neuronal Cell Activation (EC50)” value in data set [4] (setting [6]) is “inactive”. Moreover, the “Hemolysis (HC50)” value in data set [5] was greater than 15 µM.
For the compound `CC[C@H](C)[C@H](N)C(=O)N[C@@H](CC(=O)O)C(=O)N[C@@H](Cc1c[nH]c2ccccc12)C(=O)N[C@@H](CCCCN)C(=O)N[C@@H](CCCCN)C(=O)N[C@H](C(=O)N[C@@H](CC(=O)O)C(=O)N[C@@H](Cc1c[nH]c2ccccc12)C(=O)N[C@@H](CCCCN)C(=O)N[C@@H](CCCCN)C(=O)N[C@H](C(=O)N[C@@H](CO)C(=O)N[C@@H](CCCCN)C(=O)N[C@@H](CCCCN)C(=O)N[C@H](C(=O)N[C@H]1CSSC[C@@H](C(=O)N[C@@H](CCCCN)C(=O)N[C@@H](Cc2ccccc2)C(=O)N[C@@H](CC(C)C)C(N)=O)NC(=O)[C@H](C)NC(=O)[C@H](CCCCN)NC(=O)[C@H](CC(C)C)NC(=O)[C@H](CCSC)NC(=O)[C@H](C(C)C)NC(=O)[C@H](CCCCN)NC1=O)[C@@H](C)O)C(C)C)C(C)C` [Analogue 3a], the IC50 in data set [1] came to 46.8 ± 0.6 µM. For the same compound, the “Cytotoxicity (CC50)” value in data set [2] is greater than 20 µM. In data set [3], the “Insecticidal Activity (LD50)” value is recorded as greater than 600 pmol/g. Moreover, the “Neuronal Cell Activation (EC50)” value in data set [4] (setting [6]) was “inactive”. The “Hemolysis (HC50)” value in data set [5] is given as greater than 20 µM.

The IC50 is the midpoint of a concentration-inhibition curve. The EC50 is the concentration needed to bring the measured effect to its halfway point.
